Test results: PubChem BioAssay (NCI)
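Method: 48-hour compound exposure of cells in 96-well plates, five concentrations, linear interpolation of endpoints. The concentration for full growth arrest is given as TGI.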

Legend:
Test in all cases: NCI tumour cell line growth inhibition, 48 h
786-0 renal = system: 786-0 renal
A498 renal = system: A498 renal
A549 NSCLC = system: A549 NSCLC
ACHN renal = system: ACHN renal
CAKI-1 renal = system: CAKI-1 renal
CCRF-CEM leukemia = system: CCRF-CEM leukemia
COLO 205 colon = system: COLO 205 colon
DLD-1 colon = system: DLD-1 colon
DMS 114 small cell lung = system: DMS 114 small cell lung
DMS 273 small cell lung = system: DMS 273 small cell lung
EKVX NSCLC = system: EKVX NSCLC
HCC-2998 colon = system: HCC-2998 colon
HCT-116 colon = system: HCT-116 colon
HCT-15 colon = system: HCT-15 colon
HL-60(TB) leukemia = system: HL-60(TB) leukemia
HOP-18 NSCLC = system: HOP-18 NSCLC
HOP-62 NSCLC = system: HOP-62 NSCLC
HOP-92 NSCLC = system: HOP-92 NSCLC
HT29 colon = system: HT29 colon
IGROV1 ovarian = system: IGROV1 ovarian
K-562 leukemia = system: K-562 leukemia
KM12 colon = system: KM12 colon
KM20L2 colon = system: KM20L2 colon
LOX IMVI melanoma = system: LOX IMVI melanoma
LXFL 529 NSCLC = system: LXFL 529 NSCLC
M14 melanoma = system: M14 melanoma
M19-MEL melanoma = system: M19-MEL melanoma
MALME-3M melanoma = system: MALME-3M melanoma
MOLT-4 leukemia = system: MOLT-4 leukemia
NCI-H226 lung = system: NCI-H226 lung
NCI-H23 lung = system: NCI-H23 lung
NCI-H460 lung = system: NCI-H460 lung
NCI-H522 lung = system: NCI-H522 lung
OVCAR-4 ovarian = system: OVCAR-4 ovarian
OVCAR-5 ovarian = system: OVCAR-5 ovarian
OVCAR-8 ovarian = system: OVCAR-8 ovarian
RPMI-8226 leukemia = system: RPMI-8226 leukemia
RXF 393 renal = system: RXF 393 renal
SF-268 CNS = system: SF-268 CNS
SF-295 CNS = system: SF-295 CNS
SF-539 CNS = system: SF-539 CNS
SK-MEL-2 melanoma = system: SK-MEL-2 melanoma
SK-MEL-28 melanoma = system: SK-MEL-28 melanoma
SK-MEL-5 melanoma = system: SK-MEL-5 melanoma
SK-OV-3 ovarian = system: SK-OV-3 ovarian
SN12C renal = system: SN12C renal
SNB-19 CNS = system: SNB-19 CNS
SNB-75 CNS = system: SNB-75 CNS
SNB-78 CNS = system: SNB-78 CNS
SW-620 colon = system: SW-620 colon
TK-10 renal = system: TK-10 renal
U251 CNS = system: U251 CNS
UACC-257 melanoma = system: UACC-257 melanoma
UACC-62 melanoma = system: UACC-62 melanoma
UO-31 renal = system: UO-31 renal
XF 498 CNS = system: XF 498 CNS
OVCAR-3 ovarian = system: OVCAR-3 ovarian
SR leukemia = system: SR leukemia

C[N+](C)(C)CC(=O)N/N=C(/C=C/c1ccccc1)CC1OC(=O)c2ccccc21 (stereo unspecified)
TGI (786-0 renal): > 100 µM
TGI (A498 renal): > 100 µM
TGI (A549 NSCLC): > 100 µM
TGI (ACHN renal): > 100 µM
TGI (CAKI-1 renal): > 100 µM
TGI (CCRF-CEM leukemia): > 100 µM
TGI (COLO 205 colon): > 100 µM
TGI (DLD-1 colon): > 100 µM
TGI (DMS 114 small cell lung): > 100 µM
TGI (DMS 273 small cell lung): > 100 µM
TGI (EKVX NSCLC): > 100 µM
TGI (HCC-2998 colon): > 100 µM
TGI (HCT-116 colon): > 100 µM
TGI (HCT-15 colon): > 100 µM
TGI (HL-60(TB) leukemia): > 100 µM
TGI (HOP-18 NSCLC): > 100 µM
TGI (HOP-62 NSCLC): > 100 µM
TGI (HOP-92 NSCLC): > 10 µM
TGI (HT29 colon): > 10 µM
TGI (IGROV1 ovarian): > 100 µM
TGI (K-562 leukemia): > 100 µM
TGI (KM12 colon): > 100 µM
TGI (KM20L2 colon): > 100 µM
TGI (LOX IMVI melanoma): > 10 µM
TGI (LXFL 529 NSCLC): > 100 µM
TGI (M14 melanoma): > 100 µM
TGI (M19-MEL melanoma): > 100 µM
TGI (MALME-3M melanoma): > 100 µM
TGI (MOLT-4 leukemia): > 100 µM
TGI (NCI-H226 lung): > 100 µM
TGI (NCI-H23 lung): > 10 µM
TGI (NCI-H460 lung): > 100 µM
TGI (NCI-H522 lung): > 100 µM
TGI (OVCAR-4 ovarian): > 100 µM
TGI (OVCAR-5 ovarian): > 10 µM
TGI (OVCAR-8 ovarian): > 100 µM
TGI (RPMI-8226 leukemia): > 100 µM
TGI (RXF 393 renal): > 100 µM
TGI (SF-268 CNS): > 100 µM
TGI (SF-295 CNS): > 10 µM
TGI (SF-539 CNS): > 100 µM
TGI (SK-MEL-2 melanoma): > 100 µM
TGI (SK-MEL-28 melanoma): > 100 µM
TGI (SK-MEL-5 melanoma): > 100 µM
TGI (SK-OV-3 ovarian): > 100 µM
TGI (SN12C renal): > 100 µM
TGI (SNB-19 CNS): > 100 µM
TGI (SNB-75 CNS): > 100 µM
TGI (SNB-78 CNS): > 100 µM
TGI (SW-620 colon): > 100 µM
TGI (TK-10 renal): > 100 µM
TGI (U251 CNS): > 100 µM
TGI (UACC-257 melanoma): > 100 µM
TGI (UACC-62 melanoma): > 100 µM
TGI (UO-31 renal): > 100 µM
TGI (XF 498 CNS): > 100 µM

O=C(CC1Sc2ccccc2NC1=O)Nc1cccc(Cl)c1 (stereo unspecified)
TGI (786-0 renal): > 100 µM
TGI (A498 renal): > 100 µM
TGI (A549 NSCLC): > 100 µM
TGI (ACHN renal): > 100 µM
TGI (CAKI-1 renal): > 100 µM
TGI (CCRF-CEM leukemia): > 100 µM
TGI (DLD-1 colon): > 100 µM
TGI (DMS 114 small cell lung): > 100 µM
TGI (DMS 273 small cell lung): > 100 µM
TGI (EKVX NSCLC): 84.8 µM
TGI (HCC-2998 colon): > 100 µM
TGI (HCT-116 colon): > 100 µM
TGI (HCT-15 colon): > 100 µM
TGI (HL-60(TB) leukemia): > 100 µM
TGI (HOP-92 NSCLC): 86.1 µM
TGI (HT29 colon): > 100 µM
TGI (IGROV1 ovarian): > 100 µM
TGI (K-562 leukemia): > 100 µM
TGI (KM20L2 colon): > 100 µM
TGI (LOX IMVI melanoma): 48.2 µM
TGI (LXFL 529 NSCLC): > 100 µM
TGI (M14 melanoma): > 100 µM
TGI (M19-MEL melanoma): > 100 µM
TGI (MALME-3M melanoma): > 100 µM
TGI (MOLT-4 leukemia): 57.2 µM
TGI (NCI-H226 lung): 90.8 µM
TGI (NCI-H23 lung): > 100 µM
TGI (NCI-H460 lung): > 100 µM
TGI (OVCAR-3 ovarian): 86.8 µM
TGI (OVCAR-4 ovarian): > 100 µM
TGI (OVCAR-5 ovarian): > 100 µM
TGI (OVCAR-8 ovarian): 75.8 µM
TGI (RPMI-8226 leukemia): 69.6 µM
TGI (RXF 393 renal): 80.4 µM
TGI (SF-268 CNS): > 100 µM
TGI (SF-295 CNS): > 100 µM
TGI (SF-539 CNS): > 100 µM
TGI (SK-MEL-2 melanoma): > 100 µM
TGI (SK-MEL-28 melanoma): 89.7 µM
TGI (SK-MEL-5 melanoma): > 100 µM
TGI (SN12C renal): > 100 µM
TGI (SNB-19 CNS): > 100 µM
TGI (SNB-75 CNS): > 100 µM
TGI (SNB-78 CNS): > 100 µM
TGI (SR leukemia): 97.5 µM
TGI (SW-620 colon): > 100 µM
TGI (TK-10 renal): > 100 µM
TGI (U251 CNS): 82.8 µM
TGI (UACC-257 melanoma): > 100 µM
TGI (UACC-62 melanoma): > 100 µM
TGI (UO-31 renal): 82.5 µM
TGI (XF 498 CNS): 86.5 µM

CCC12C=CCN3CC[C@]4(C(=C(C(=O)OC)[C@@H]1Nc1ncnc5c1ncn5C1OC(COC(C)=O)C(OC(C)=O)C1OC(C)=O)Nc1ccccc14)C32 (stereo partly specified)
TGI (786-0 renal): 4.01 µM
TGI (A498 renal): 4.56 µM
TGI (A549 NSCLC): 13.2 µM
TGI (ACHN renal): 5.69 µM
TGI (CAKI-1 renal): 12.6 µM
TGI (CCRF-CEM leukemia): 6.81 µM
TGI (COLO 205 colon): 3.48 µM
TGI (DLD-1 colon): 6.22 µM
TGI (DMS 114 small cell lung): 4.27 µM
TGI (DMS 273 small cell lung): 7.17 µM
TGI (EKVX NSCLC): 16.2 µM
TGI (HCC-2998 colon): 4.56 µM
TGI (HCT-116 colon): 5.55 µM
TGI (HCT-15 colon): 7.79 µM
TGI (HL-60(TB) leukemia): 7.39 µM
TGI (HOP-18 NSCLC): 19.5 µM
TGI (HOP-62 NSCLC): 5.83 µM
TGI (HOP-92 NSCLC): 9.02 µM
TGI (HT29 colon): 4.88 µM
TGI (IGROV1 ovarian): 7.31 µM
TGI (K-562 leukemia): 17 µM
TGI (KM12 colon): 5.51 µM
TGI (KM20L2 colon): 6.94 µM
TGI (LOX IMVI melanoma): 3.25 µM
TGI (LXFL 529 NSCLC): 5.42 µM
TGI (M14 melanoma): 7.03 µM
TGI (M19-MEL melanoma): 5.93 µM
TGI (MALME-3M melanoma): 15.1 µM
TGI (MOLT-4 leukemia): 25.3 µM
TGI (NCI-H226 lung): 5.22 µM
TGI (NCI-H23 lung): 4.06 µM
TGI (NCI-H460 lung): 5.99 µM
TGI (NCI-H522 lung): 3.12 µM
TGI (OVCAR-3 ovarian): 4.3 µM
TGI (OVCAR-4 ovarian): 5.23 µM
TGI (OVCAR-5 ovarian): 8.94 µM
TGI (OVCAR-8 ovarian): 4.67 µM
TGI (RPMI-8226 leukemia): 18.9 µM
TGI (RXF 393 renal): 3.92 µM
TGI (SF-268 CNS): 5.11 µM
TGI (SF-295 CNS): 9.67 µM
TGI (SF-539 CNS): 4.4 µM
TGI (SK-MEL-2 melanoma): 9.36 µM
TGI (SK-MEL-28 melanoma): 10.8 µM
TGI (SK-MEL-5 melanoma): 8.47 µM
TGI (SK-OV-3 ovarian): 5.32 µM
TGI (SN12C renal): 4.45 µM
TGI (SNB-19 CNS): 12.1 µM
TGI (SNB-75 CNS): 7.03 µM
TGI (SNB-78 CNS): 8.26 µM
TGI (SR leukemia): 6.17 µM
TGI (SW-620 colon): 5.31 µM
TGI (TK-10 renal): 6.58 µM
TGI (U251 CNS): 4.91 µM
TGI (UACC-257 melanoma): 16.8 µM
TGI (UACC-62 melanoma): 10.3 µM
TGI (UO-31 renal): 13.2 µM
TGI (XF 498 CNS): 7.44 µM
